Test results from patent US7329681B2, “Inhibitors of IMPDH enzyme” (Vertex Pharmaceuticals Incorporated, priority 1996, dated 2008).

Molecular target: IMPDH human type II (Homo sapiens, UniProt P12268)
Assay: IMPDH activity inhibition assay (spectrophotometric, NADH formation at 340 nm)
Format: biochemical
Conditions: not given
Description: We have measured the inhibition constants of each compound against IMPDH using an adaptation of the method first reported by […]. Moyed, and […]. Biol. Chem., 226, p. 339 (1957)]. We measured the inhibition constants of the compounds listed in Table III utilizing the following protocol: IMP dehydrogenase activity was assayed following an adaptation of the method first reported by […]. Moyed, H. S. and […]. Biol. Chem. 226, 339]. Enzyme activity was measured spectrophotometrically, by monitoring the increase in absorbance at 340 nm due to the formation of NADH (ε340 is 6220 M^-1 cm^-1). The reaction mixture contained 0.1 M Tris pH 8.0, 0.1 M KCl, 3 mM EDTA, 2 mM DTT, […] and enzyme (IMPDH human type II) at a concentration of 15 to 50 nM. This solution is incubated at 37° C. for 10 minutes. The reaction is started by adding NAD to a final concentration of 0.1 M and the initial rate is measured by following the linear increase in absorbance at 340 nm for 10 minutes. For reading in a standard spectrophotometer (path length 1 cm) the final volume in the cuvette is 1.0 ml. The assay has also been adapted to a 96 well microtiter plate format; in this case the concentrations of all the reagents remain the same and the final volume is decreased to 200 μl. For the analysis of inhibitors, the compound in question is dissolved in DMSO to a final concentration of 20 mM and added to the initial assay mixture for preincubation with the enzyme at a final volume of 2-5% (v/v). The reaction is started by the addition of NAD, and the initial rates measured as above. […] The designation “ND” is used where a given compound was not tested.

`COc1cc(NC(=O)Nc2cccc(CNC(=O)Oc3ccc(NC(C)=O)cc3)c2)ccc1-c1cnco1` [Compound 127] and `COc1cc(NC(=O)Nc2cccc(CNC(=O)Oc3ccccc3)c2)ccc1-c1cnco1` [Compound 119] fall in the same range of Ki: 0.01 to 50 nM for the first, 0.01 to 50 nM for the second.

For `C=CCOC(=O)NCc1cccc(NC(=O)Nc2ccc(-c3cnco3)c(OC)c2)c1` [Compound 125], the Ki was 0.01 to 50 nM.

Same assay, conditions: IMPDH human type II, 15 to 50 nM enzyme, 37° C., tight-binding fit (Henderson); read-out: Ki

`O=C(Nc1ccc(-c2cnco2)cc1)Nc1ccc(Cl)c(C(F)(F)F)c1` [Compound 9] and `O=C(Nc1ccc(-c2cnco2)cc1)Nc1cccc(C(F)(F)F)c1` [Compound 18] fall in the same range of Ki: 1000 to 10000 nM for the first, 1000 to 10000 nM for the second.

`COc1cc(NC(=O)Nc2cccc(CNC(=O)OC[C@@H]3CNC(=O)O3)c2)ccc1-c1cnco1` [Compound 122] and `COc1cc(NC(=O)Nc2cccc(CNC(=O)OCC3CCOC(C)(C)O3)c2)ccc1-c1cnco1` (centres unmarked) [Compound 146] fall in the same range of Ki: 0.01 to 50 nM for the first, 0.01 to 50 nM for the second.

First: CC(C)(C)OC(=O)NCc1cccc(NC(=O)Nc2cccc(CNC(=O)OC(C)(C)C)c2)c1 [Compound 103]
Second: COc1cc(NC(=O)Nc2cccc(CNC(=O)OCCCNC(=O)OC(C)(C)C)c2)ccc1-c1cnco1 [Compound 139]
The Ki of the first is higher: 1000 to 10000 nM for the first, 51 to 1000 nM for the second. The second binds more tightly here.

`COc1cc(NC(=O)Nc2cccc(CN)c2)ccc1-c1cnco1` [Compound 105] and `COc1cc(NC(=O)Nc2cccc(NC(C)=O)c2)ccc1-c1cnco1` [Compound 84] fall in the same range of Ki: 51 to 1000 nM for the first, 51 to 1000 nM for the second.

`O=C(Nc1ccc(-c2cnco2)c(Cl)c1)Nc1cccs1` [Compound 68] and `O=C(Nc1cccc(I)c1)Nc1ccc(-c2cnco2)c(Cl)c1` [Compound 73] fall in the same range of Ki: 51 to 1000 nM for the first, 51 to 1000 nM for the second.

First: COc1ccc(NC(=O)Nc2cccc([N+](=O)[O-])c2)cc1Cl [Compound 52]
Second: O=C(Nc1cccc([N+](=O)[O-])c1)Nc1ccc(-c2cnco2)c(Cl)c1 [Compound 78]
The Ki of the first is higher: 1000 to 10000 nM for the first, 51 to 1000 nM for the second.

`O=C(Nc1ccc(-c2cnco2)cc1)Nc1ccc2c(c1)OCCO2` [Compound 39] and `CC1(c2cccc(NC(=O)Nc3ccc(-c4cnco4)cc3)c2)OCCO1` [Compound 50] cannot be ordered by Ki: over 10000 nM for the first, over 10000 nM for the second.

`O=C(Nc1ccc(-c2cnco2)cc1)Nc1cccc(-c2ccoc2)c1` [Compound 53] and `Cc1ncc(-c2cccc(NC(=O)Nc3ccc(-c4cnco4)cc3)c2)cn1` [Compound 66] fall in the same range of Ki: 1000 to 10000 nM for the first, 1000 to 10000 nM for the second.

`COc1cc(NC(=O)Nc2cccc(CNC(=O)OCCCCCO)c2)ccc1-c1cnco1` [Compound 141] and `COCCCOC(=O)NCc1cccc(NC(=O)Nc2ccc(-c3cnco3)c(OC)c2)c1` [Compound 162] fall in the same range of Ki: 0.01 to 50 nM for the first, 0.01 to 50 nM for the second.

`COCCOC(=O)NCc1cccc(NC(=O)Nc2ccc(-c3cnco3)c(OC)c2)c1` [Compound 130] and `COc1cc(NC(=O)Nc2cccc(CNC(=O)OCC(C)C)c2)ccc1-c1cnco1` [Compound 124] fall in the same range of Ki: 0.01 to 50 nM for the first, 0.01 to 50 nM for the second.

`COc1cc(NC(=O)Nc2cccc(CNC(=O)OC3CCCC3)c2)ccc1-c1cnco1` [Compound 133] and `COc1cc(NC(=O)Nc2cccc(CNC(=O)OC3CCCNC3)c2)ccc1-c1cnco1` (centres unmarked) [Compound 153] fall in the same range of Ki: 0.01 to 50 nM for the first, 0.01 to 50 nM for the second.

`COc1ccc(NC(=O)Nc2cccc(Br)c2)cc1OC` [Compound 34] and `COc1ccc(NC(=O)Nc2cccc(C)c2)cc1OC` [Compound 28] fall in the same range of Ki: 1000 to 10000 nM for the first, 1000 to 10000 nM for the second.

First: O=C(Nc1ccc(-c2cnco2)cc1)Nc1cccnc1 [Compound 29]
Second: Cc1cccc(NC(=O)Nc2ccc(-c3cnco3)cc2)c1 [Compound 17]
The Ki of the first is higher: over 10000 nM for the first, 51 to 1000 nM for the second.

`O=C(Nc1ccc(Oc2ccccc2)cc1)Nc1ccc(-c2cnco2)cc1` [Compound 21] and `O=C(Nc1ccc(-c2cnco2)cc1)Nc1ccc([N+](=O)[O-])cc1` [Compound 16] fall in the same range of Ki: 1000 to 10000 nM for the first, 1000 to 10000 nM for the second.

First: CC(=O)OCc1cc(NC(=O)Nc2cccc(C)c2)ccc1-c1cnco1 [Compound 101]
Second: COC(=O)Cc1cccc(NC(=O)Nc2ccc(-c3cnco3)c(Cl)c2)c1 [Compound 57]
The Ki of the first is higher: 1000 to 10000 nM for the first, 51 to 1000 nM for the second. The second binds more tightly here.

First: CC(=O)Nc1cccc(NC(=O)Nc2ccc(-c3cnco3)c(Cl)c2)c1 [Compound 72]
Second: COc1cc(NC(=O)Nc2cccc(NC(=O)C(F)F)c2)ccc1-c1cnco1 [Compound 100]
The Ki of the first is higher: 1000 to 10000 nM for the first, 51 to 1000 nM for the second.

`COc1cc(NC(=O)Nc2cccc(CNC(=O)OC3COCOC3)c2)ccc1-c1cnco1` [Compound 126] and `COc1cc(NC(=O)Nc2cccc(CNC(=O)O[C@H]3CCOC3)c2)ccc1-c1cnco1` [Compound 120] fall in the same range of Ki: 0.01 to 50 nM for the first, 0.01 to 50 nM for the second.

`COc1cc(NC(=O)Nc2cccc(CNC(=O)OC3CCOCC3)c2)ccc1-c1cnco1` [Compound 131] and `COc1cc(NC(=O)Nc2cccc(CNC(=O)OC3CCOC3)c2)ccc1-c1cnco1` (centres unmarked) [Compound 136] fall in the same range of Ki: 0.01 to 50 nM for the first, 0.01 to 50 nM for the second.

First: CN(C)c1cccc(NC(=O)Nc2ccc(-c3cnco3)cc2)c1 [Compound 49]
Second: O=C(Nc1ccc(-c2cnco2)cc1)Nc1cccc(Br)c1 [Compound 7]
The Ki of the first is higher: 1000 to 10000 nM for the first, 51 to 1000 nM for the second.

`O=C(Nc1ccc(-c2cnco2)cc1)Nc1ccccc1C(F)(F)F` [Compound 19] and `N#Cc1cccc(NC(=O)Nc2ccc(-c3cnco3)cc2)c1` [Compound 8] fall in the same range of Ki: 1000 to 10000 nM for the first, 1000 to 10000 nM for the second.

First: O=C(Nc1cccc([N+](=O)[O-])c1)Nc1ccc(-c2cnco2)c(Br)c1 [Compound 64]
Second: COc1cc(NC(=O)Nc2cccc(N(C)C(C)=O)c2)ccc1-c1cnco1 [Compound 107]
The Ki of the first is higher: 51 to 1000 nM for the first, 0.01 to 50 nM for the second. The second binds more tightly here.

`COc1cc(NC(=O)Nc2cccc(CNC(=O)OCC3CCNCC3)c2)ccc1-c1cnco1` [Compound 155] and `COc1cc(NC(=O)Nc2cccc(CNC(=O)OCC3CCCCC3)c2)ccc1-c1cnco1` [Compound 135] fall in the same range of Ki: 0.01 to 50 nM for the first, 0.01 to 50 nM for the second.

Compared with `Cc1cccc(NC(=O)Nc2ccc(C#N)cc2)c1` [Compound 33], `Cc1cccc(NC(=O)Nc2ccc(C#N)c(Cl)c2)c1` [Compound 70] is lower in Ki: over 10000 nM for the first, 1000 to 10000 nM for the second.

`COc1cc(NC(=O)Nc2cccc(N(C)C(C)=O)c2)ccc1C#N` [Compound 164] and `CC(=O)N(C)c1cccc(NC(=O)Nc2ccc(C#N)c(Cl)c2)c1` [Compound 163] fall in the same range of Ki: 51 to 1000 nM for the first, 51 to 1000 nM for the second.

Compared with `COc1ccc(Cl)cc1NC(=O)Nc1ccc(OC)c(OC)c1` [Compound 35], `COc1ccc(NC(=O)Nc2cccc(SC)c2)cc1OC` [Compound 38] is higher in Ki: 1000 to 10000 nM for the first, over 10000 nM for the second.

First: COc1cc(NC(=O)Nc2cccc(NC(=O)OCc3ccccc3)c2)ccc1-c1cnco1 [Compound 83]
Second: COc1cc(NC(=O)Nc2cccc(NC(=O)Cc3ccccc3)c2)ccc1-c1cnco1 [Compound 111]
The Ki of the first is higher: 51 to 1000 nM for the first, 0.01 to 50 nM for the second.

`COc1ccc(C)cc1NC(=O)Nc1ccc(-c2cnco2)cc1` [Compound 11] and `COc1ccc(OC)c(NC(=O)Nc2ccc(-c3cnco3)cc2)c1` [Compound 14] fall in the same range of Ki: 1000 to 10000 nM for the first, 1000 to 10000 nM for the second.

`CNS(=O)(=O)c1cccc(NC(=O)Nc2ccc(-c3cnco3)cc2)c1` [Compound 81] and `COc1cccc(NC(=O)Nc2ccc(-c3cnco3)cc2)c1` [Compound 13] fall in the same range of Ki: 1000 to 10000 nM for the first, 1000 to 10000 nM for the second.

First: COC(=O)Cc1cccc(NC(=O)Nc2ccc(-c3cnco3)cc2)c1 [Compound 47]
Second: O=C(O)Cc1cccc(NC(=O)Nc2ccc(-c3cnco3)cc2)c1 [Compound 54]
The Ki of the first is lower: 51 to 1000 nM for the first, 1000 to 10000 nM for the second.

`COc1cc(NC(=O)Nc2cccc(NC(=O)C(=O)c3cc(OC)c(OC)c(OC)c3)c2)ccc1-c1cnco1` [Compound 108] and `COc1cc(NC(=O)Nc2cccc(NC(=O)Nc3ccccc3)c2)ccc1-c1cnco1` [Compound 112] fall in the same range of Ki: 51 to 1000 nM for the first, 51 to 1000 nM for the second.

Compared with `COc1cc(NC(=O)Nc2cccc(CNC(=O)OC(C)(C)C)c2)ccc1-c1cnco1` [Compound 113], `COc1cc(NC(=O)Nc2cccc(CNC(=O)OCCCS(C)(=O)=O)c2)ccc1-c1cnco1` [Compound 157] is higher in Ki: 0.01 to 50 nM for the first, 51 to 1000 nM for the second.

First: COc1cc(NC(=O)Nc2cccc(CNC(=O)OCC3CCCCN3C(=O)OC(C)(C)C)c2)ccc1-c1cnco1 (centres unmarked) [Compound 152]
Second: COc1cc(NC(=O)Nc2cccc(CNC(=O)OCC3CCCN(C(=O)OC(C)(C)C)C3)c2)ccc1-c1cnco1 (centres unmarked) [Compound 149]
The Ki of the first is higher: 51 to 1000 nM for the first, 0.01 to 50 nM for the second. The second binds more tightly here.

`Cc1cccc(NC(=O)Nc2ccc(-c3ocnc3C)c(Cl)c2)c1` [Compound 76] and `COc1ccc(NC(=O)Nc2cccc(C)c2)cc1CO` [Compound 90] fall in the same range of Ki: 1000 to 10000 nM for the first, 1000 to 10000 nM for the second.

`COc1cc(NC(=O)Nc2cccc(CNC(=O)OC3CCCSC3)c2)ccc1-c1cnco1` (centres unmarked) [Compound 161] and `COc1cc(NC(=O)Nc2cccc(CNC(=O)OC3CCSC3)c2)ccc1-c1cnco1` (centres unmarked) [Compound 160] fall in the same range of Ki: 0.01 to 50 nM for the first, 0.01 to 50 nM for the second.

First: Cc1cc(N)cc(NC(=O)Nc2ccc(-c3cnco3)cc2)c1 [Compound 58]
Second: CN(C(=O)C(F)(F)F)c1cccc(NC(=O)Nc2ccc(-c3cnco3)c(Cl)c2)c1 [Compound 93]
The Ki of the first is higher: 1000 to 10000 nM for the first, 0.01 to 50 nM for the second.

`COc1cc(NC(=O)Nc2cccc(N(C)C(=O)C(F)(F)F)c2)ccc1-c1cnco1` [Compound 97] gave a Ki of 0.01 to 50 nM.
